In article PMC11502347 (Frontiers in Microbiology, 2024):

How the values were obtained:
[1] = tested on: Mtb CF 44 (mono-resistant to isoniazid); type: cell-based, Mycobacterium tuberculosis; details: Mono INH clinical isolate; REMA, 7H9 + 10% OADC, 7 days
[2] = tested on: Mtb CF 184 (mono-resistant to isoniazid); type: cell-based, Mycobacterium tuberculosis; details: Mono INH clinical isolate; REMA, 7 days

Row | Structure (SMILES) | CIM90 CF 44 [1] | CIM90 CF 184 [2]
1 | CO[C@H]1/C=C/O[C@@]2(C)Oc3c(C)c(O)c4c(O)c(c(/C=N/N5CCN(C)CC5)c(O)c4c3C2=O)NC(=O)/C(C)=C\C=C\[C@H](C)[C@H](O)[C@@H](C)[C@@H](O)[C@@H](C)[C@H](OC(C)=O)[C@@H]1C [RFP, rifampicin] | 0,05 ± 0,01 μM | 0,05 ± 0,01 μM
2 | NCC[C@H](O)C(=O)N[C@@H]1C[C@H](N)[C@@H](O[C@H]2O[C@H](CN)[C@@H](O)[C@H](O)[C@H]2O)[C@H](O)[C@H]1O[C@H]1O[C@H](CO)[C@@H](O)[C@H](N)[C@H]1O [AMK, amikacin] | 1,48 ± 1,12 μM | 0,24 ± 0,00 μM
3 | O=C(Nc1ccc(N2CCN(c3ccccn3)CC2)c(F)c1)c1ccc2no[n+]([O-])c2c1 [Compound 5n] | 4,71 ± 3,11 μM | 0,96 ± 1,04 μM
4 | NNC(=O)c1ccncc1 [INH, isoniazid] | > 182,30 μM | > 182,30 μM
5 | O=C(Nc1ccc(N2CCSCC2)c(F)c1)c1ccc2no[n+]([O-])c2c1 [Compound 5b] | 0,52 ± 0,09 μM | 0,37 ± 0,15 μM
